Like-named read-outs stand apart in the source and are kept apart here.
What was measured:
[1] = Plasma protein binding by equilibrium dialysis, monkey plasma; format: in vitro ADME; conditions: plasma (10% in buffer), Cynomolgus, read-out: Fu (Mari)
Method: (§1) The determination of the plasma protein binding of compounds was performed by means of an equilibrium dialysis in a 96-well HT plate. Solutions of test compound (0.3 μM and 3 μM) were prepared in buffer (50 mM phosphate buffer) and 10% plasma. A 96 well HT dialysis plate (Teflon) was assembled so that each well was divided in two compartments by a semi-permeable cellulose membrane (regenerated Cellulose, MWCO 12-14K). The phosphate buffer solution (150 μL) was added to one side of the membrane and the plasma solution to the other side (150 μL). The compounds were added to the plasma solution side and were incubated at 37 degree. The unbound fraction of the compound could pass through the membrane and equilibrium between the two sides could be reached (6-8 h, 37° C.). Both solutions were analyzed for each compound (plasma-free and plasma-containing) by LC-MS. Both solutions for each compound were diluted with buffer or plasma to reach the same matrix (10% plasma) for analysis and were precipitated by the addition of methanol. The fraction unbound (Fu) was calculated as the quotient of the equilibrium concentrations of the compound in plasma-free and plasma-containing solution.

rat microsomes = assay: In vitro metabolic stability in liver microsomes, rat; format: in vitro ADME; conditions: Wistar, male, calculated
Method: (§2) The incubation concentration was 0.3 μM. […] The samples were frozen over night at −20° C.

Human liver microsomes = assay: In vitro metabolic stability in liver microsomes, human; format: in vitro ADME; conditions: both, 0.3 μM, pH 7.4
Method: as §2

monkey microsomes = assay: In vitro metabolic stability in liver microsomes, monkey; format: in vitro ADME; conditions: Cynomolgus, female, calculated
Method: as §2

[2] = Plasma protein binding by equilibrium dialysis, human plasma; format: in vitro ADME; conditions: plasma (10% in buffer), Caucasian, read-out: Fu (Mari)
Method: as §1

[3] = target: human GPIIb/IIIa receptor (Homo sapiens (Human), UniProt P05106+P08514); assay: Affinity assay: displacement of tritiated reference compound from immobilized purified GPIIb/IIIa; format: binding
Method: Affinity assay: In the first step human GPIIb/IIIa purified from human platelets was immobilized on a 96-well solid plate. After 48 hours the plates were washed and the unspecific binding sites were blocked with Roti®-Block. 2. In the next step, the plates were simultaneously incubated with a tritium labeled known GPIIb/IIIa binder (^3H) mixed with increasing concentrations of the novel small molecule compounds (inhibitor, ^19F). The higher the affinity of the inhibitor, the lower the bound fraction of the tritiated known GPIIb/IIIa binder (^3H) was. The fraction of tritiated compound (^3H), which is not displaced by inhibitor, was measured in a microplate scintillation counter.
Purified human glycoprotein IIb/IIIa (20 mM Tris-HCl, 0.1 M NaCl, 0.1% Triton X-100, 1 mM CaCl2, 0.05% NaN3, 50% Glycerol, pH 7.4) was purchased from Enzyme Research Laboratories Inc. (South Bend, Ind.). The GPIIb/IIIa receptor was diluted in phosphate-buffered saline (Dulbecco's Phosphate Buffered Saline (D-PBS(+)) with calcium and magnesium, GIBCO®, Invitrogen) with 0.01% bovine serum albumin (albumin from bovine serum—lyophilized powder, ≧96%, Sigma).
The GPIIb/IIIa receptor was immobilized 48 hours at least (100 μL per well, 48 to maximum 96 hours) on a 96-well solid plate (Immuno Plate MaxiSorp™, Nunc, Roskilde, Denmark) at 277 K to 280 K and at a concentration of 0.1 μg per well to 1 μg per well. As negative control one row of the plate (n=8) was incubated just with 2% bovine serum albumin (200 μper well, albumin from bovine serum—lyophilized powder, […], Sigma, diluted in D-PBS(+)). After washing three times with the wash buffer (230 μL per well, Dulbecco's Phosphate Buffered Saline (D-PBS (−)) contains no calcium or magnesium, GIBCO®, Invitrogen) residual exposed plastic and unspecific binding sites were blocked by incubating the plate with a special blocking solution (200 μL per well, Roti®-Block, Carl Roth GmbH Co KG, Karlsruhe) containing 2% bovine serum albumin (Albumin from bovine serum—lyophilized powder, ≧96%, Sigma) 1 hour at room temperature.
After washing three times with the wash buffer 50 μL of tritiated reference compound (60 nM, ^3H-labeled compound) and 50 μL of novel compound (inhibitor, ^19F) were simultaneously added to each well and incubated for 1 hour at room temperature. Several concentrations of each novel inhibitor (0.1, 1, 2, 5, 10, 20 50, 100, 200, 500, 1000, 2000, 5000, 10000 and 20000 nM) were investigated. At each concentration of inhibitor a fourfold determination was performed.
The maximum value of tritiated reference compound was determined without addition of inhibitor (n=8). To exclude unspecific binding of ^3H-reference compound wells without glycoprotein receptors were used as negative controls (n=12, identically treated just without GP IIb/IIIa receptors).
After one hour the plate was washed three times with phosphate-buffered saline (200 μL per well, Dulbecco's Phosphate Buffered Saline (D-PBS(+)), GIBCO®, Invitrogen). Following 140 μL of liquid scintillation cocktail (MicroScint™ 40 aqueous, Perkin Elmer) was added to each well. After 15 min at room temperature the plates were measured at the microplate scintillation counter (TopCount NXT v2.13, Perkin Elmer, Packard Instrument Company).
In the first step human glycoprotein IIb/IIIa, which is purified from human platelets, was immobilized on a 96-well solid plate. After 48 hours at least the plates were washed and the unspecific binding sites were blocked with Roti®-Block. In the next step, the plates were simultaneously incubated with a tritium labeled reference compound and the novel small molecule compound (inhibitor). The higher the affinity of the inhibitor, the smaller is the bound fraction of reference compound. The fraction of tritiated reference compound, which is not displaced by inhibitor, was measured at a microplate scintillation counter.

[4] = In vitro metabolic stability in liver microsomes, human; format: in vitro ADME; conditions: pH 7.4
Method: as §2

mouse microsomes = assay: In vitro metabolic stability in liver microsomes, mouse; format: in vitro ADME; conditions: NMRI, female, calculated
Method: as §2

[5] = 19F compounds vs 60 nM 3H-labeled reference compound, 1 hour at room temperature, read-out: IC50 human
[6] = values repeated beside the 18F-compound, read-out: IC50 human (corresponding 19F-compound, Table 2)

Chain of human GPIIb/IIIa receptor (P08514 32-887): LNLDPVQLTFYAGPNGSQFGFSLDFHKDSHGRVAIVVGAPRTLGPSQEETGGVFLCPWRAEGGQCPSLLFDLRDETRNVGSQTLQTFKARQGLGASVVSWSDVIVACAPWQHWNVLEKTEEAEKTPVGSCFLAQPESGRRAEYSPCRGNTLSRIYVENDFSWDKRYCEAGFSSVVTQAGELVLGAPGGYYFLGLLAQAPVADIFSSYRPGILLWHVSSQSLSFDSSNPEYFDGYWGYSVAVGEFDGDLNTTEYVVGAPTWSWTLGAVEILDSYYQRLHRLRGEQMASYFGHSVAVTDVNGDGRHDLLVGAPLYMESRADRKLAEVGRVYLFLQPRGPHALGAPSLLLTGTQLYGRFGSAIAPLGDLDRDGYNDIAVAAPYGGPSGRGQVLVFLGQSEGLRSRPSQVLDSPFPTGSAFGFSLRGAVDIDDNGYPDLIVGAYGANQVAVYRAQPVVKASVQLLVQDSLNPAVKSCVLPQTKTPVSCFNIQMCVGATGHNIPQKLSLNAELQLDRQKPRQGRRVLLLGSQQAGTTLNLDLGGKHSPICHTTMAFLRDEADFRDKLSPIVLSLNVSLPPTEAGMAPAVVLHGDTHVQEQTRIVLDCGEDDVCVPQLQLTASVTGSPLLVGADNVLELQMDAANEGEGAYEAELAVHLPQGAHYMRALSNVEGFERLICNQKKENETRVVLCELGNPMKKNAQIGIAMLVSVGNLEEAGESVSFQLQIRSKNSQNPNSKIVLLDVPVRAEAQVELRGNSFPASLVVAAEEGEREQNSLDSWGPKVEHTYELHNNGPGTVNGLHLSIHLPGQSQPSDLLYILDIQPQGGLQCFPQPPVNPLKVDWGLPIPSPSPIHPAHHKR
Chain of human GPIIb/IIIa receptor (P08514 891-1039 partner): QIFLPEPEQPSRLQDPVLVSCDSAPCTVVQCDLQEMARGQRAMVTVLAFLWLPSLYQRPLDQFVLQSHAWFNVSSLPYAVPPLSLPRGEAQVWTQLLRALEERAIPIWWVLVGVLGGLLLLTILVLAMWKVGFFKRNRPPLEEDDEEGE
Chain of human GPIIb/IIIa receptor (P05106 27-788): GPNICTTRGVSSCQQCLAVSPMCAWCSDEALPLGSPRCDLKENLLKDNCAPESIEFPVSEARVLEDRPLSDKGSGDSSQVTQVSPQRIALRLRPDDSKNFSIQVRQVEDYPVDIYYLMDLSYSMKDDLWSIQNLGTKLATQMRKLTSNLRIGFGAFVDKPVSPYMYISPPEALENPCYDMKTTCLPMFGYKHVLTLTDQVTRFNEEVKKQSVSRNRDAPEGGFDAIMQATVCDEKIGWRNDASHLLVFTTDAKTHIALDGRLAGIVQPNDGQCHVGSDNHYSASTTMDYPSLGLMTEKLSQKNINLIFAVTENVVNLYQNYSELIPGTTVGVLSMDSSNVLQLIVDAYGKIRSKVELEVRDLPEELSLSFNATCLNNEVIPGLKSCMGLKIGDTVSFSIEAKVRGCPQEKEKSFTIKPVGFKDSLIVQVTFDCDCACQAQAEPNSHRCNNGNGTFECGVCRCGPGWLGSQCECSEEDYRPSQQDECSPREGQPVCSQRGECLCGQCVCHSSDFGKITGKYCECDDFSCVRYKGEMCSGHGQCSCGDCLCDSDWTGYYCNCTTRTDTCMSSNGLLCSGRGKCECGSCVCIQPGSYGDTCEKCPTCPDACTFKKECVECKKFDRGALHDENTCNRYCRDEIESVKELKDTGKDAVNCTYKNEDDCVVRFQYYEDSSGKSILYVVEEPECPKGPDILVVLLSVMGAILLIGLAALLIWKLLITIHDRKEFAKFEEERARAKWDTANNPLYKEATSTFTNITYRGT

fraction unbound at 0.3 μM [1] | fraction unbound at 3 μM [1] | CLblood (rat microsomes) [mL/day/kg] | CLblood (Human liver microsomes) [mL/day/kg] | CLblood (monkey microsomes) [mL/day/kg] | fraction unbound at 0.3 μM [2] | fraction unbound at 3 μM [2] | IC50 [3, 5] [µM] | IC50 [3, 6] [µM] | recovery at 60 min, 0.3 μM [4] [%] | CLblood (mouse microsomes) [mL/day/kg] | Compound
0.99 | 0.93 | 2.4 | 2.4 | 2.4 | 0.91 | 0.9 | 0.101 | 0.101 |  |  | O=C(O)C[C@H](NC(=O)[C@@H]1CCCN(C(=O)CCC2CCNCC2)C1)c1cccc(OCCF)c1 [Example 1, (3S)-3-[3-(2-Fluoroethoxy)phenyl]-3-[({(3R)-1-[3-(piperidin-4-yl)propanoyl]piperidin-3-yl}carbonyl)amino]propanoic acid]
1 | 1 | 2.4 | 2.4 | 2.4 | 0.96 | 1 | 0.02 | 0.02 | ~100 | 2.4 | O=C(O)C[C@H](NC(=O)[C@@H]1CCCN(C(=O)CCC2CCNCC2)C1)c1cncc(OCCF)c1 [Example 3, (3S)-3-[5-(2-Fluoroethoxy)pyridin-3-yl]-3-[({(3R)-1-[3-(piperidin-4-yl)propanoyl]-piperidin-3-yl}carbonyl)amino]propanoic acid]

Reference: patent US9345793B2, “Compounds for binding to the platelet specific glycoprotein IIB/IIIA and their use for imaging of thrombi” (PIRAMAL IMAGING SA, priority 2011, dated 2016)
